How the values were obtained:
[1] = test system: BSA endocytosis in bloodstream T. brucei; test: Endocytosis assay: BSA-A647 uptake by bloodstream trypanosomes; assay type: cell-based, Trypanosoma brucei; details: bulk-phase uptake
[2] = test system: Tf endocytosis in HeLa cells; test: HeLa cell endocytosis of transferrin; assay type: cell-based, human; details: each compound 10 μM, Tf-Alexa488 5 μg/mL, 15 min at 37 °C
[3] = test system: bloodstream form (BSF) CA427 trypanosomes; test: Proliferation inhibition assay; assay type: cell-based, Trypanosoma brucei; details: axenic cultures of bloodstream trypanosomes, 48 h
[4] = target: T1, rTbGSK3β (Trypanosoma brucei brucei, UniProt Q388M1); test: biochemical
T1 sequence (Q388M1 1-352): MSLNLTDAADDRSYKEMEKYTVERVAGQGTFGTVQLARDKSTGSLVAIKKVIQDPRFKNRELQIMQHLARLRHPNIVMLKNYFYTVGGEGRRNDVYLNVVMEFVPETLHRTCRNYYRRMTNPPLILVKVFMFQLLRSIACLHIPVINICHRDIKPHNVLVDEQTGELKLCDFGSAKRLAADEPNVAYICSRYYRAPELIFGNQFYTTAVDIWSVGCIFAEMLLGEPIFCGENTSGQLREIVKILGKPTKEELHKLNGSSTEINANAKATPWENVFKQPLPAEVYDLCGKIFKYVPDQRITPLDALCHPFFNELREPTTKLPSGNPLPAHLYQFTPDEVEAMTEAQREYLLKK

[5] = test system: transferrin (Tf) endocytosis in bloodstream T. brucei; details: cited from earlier work
[6] = test system: bloodstream form (BSF) CA427 trypanosomes; details: read-out: GI50 (concentration of drug that inhibits growth by 50%); trypanosome proliferation; cited from earlier work
[7] = test system: transferrin (Tf) endocytosis in bloodstream T. brucei; assay type: cell-based, Trypanosoma brucei; details: Figure S1
[8] = test system: Tf endocytosis in TbGSK3β overexpression trypanosomes; test: Tf endocytosis in trypanosomes overexpressing TbGSK3β; assay type: cell-based, Trypanosoma brucei; details: clone 1, TWS119 10 μM, 3 h induction
[9] = test system: Hp-Hb endocytosis in bloodstream T. brucei; test: Endocytosis assay: Hp-Hb-A488 uptake by bloodstream trypanosomes; assay type: cell-based, Trypanosoma brucei; details: Hp-Hb 38 nM

SMILES | Effect on BSA endocytosis [1] | Effect on Tf endocytosis in HeLa cells [2] | T. brucei GL50 [3] [µM] | also measured
O=C1Nc2ccc3ncsc3c2/C1=C/Nc1ccc(S(=O)(=O)Nc2ccccn2)cc1 [GW8510] | decreased | Neither TbGSK3β inhibitor affected | 0.12 | 
O=S(=O)(NCCNC/C=C/c1ccc(Br)cc1)c1cccc2cnccc12 [H-89] |  | decreased |  | 
Cc1cc(Nc2cc(CN3CCOCC3)c3nc(C)c(Cc4ccc(Cl)cc4F)n3n2)n[nH]1 [LY2784544] |  |  | 1.0 | IC50 [4]: 0.6 ± 0.2 µM
CS(=O)(=O)CCNCc1ccc(-c2ccc3ncnc(Nc4ccc(OCc5cccc(F)c5)c(Cl)c4)c3c2)o1 [Lapatinib] |  |  |  | Effect on Tf endocytosis in T. brucei ([5]; ref Guyett, P.J., et al., manuscript submitted): blocks
C[C@@H](Nc1ncnc2[nH]c(-c3ccc(O)cc3)cc12)c1ccccc1 [PKI-166] | did not inhibit |  |  | GI50 [6]: 5 µM; IC50 [4]: > 20 µM; Effect on Tf endocytosis [7]: did not inhibit
CNC(=O)c1cc(Oc2ccc(NC(=O)Nc3ccc(Cl)c(C(F)(F)F)c3)cc2)ccn1 [Sorafenib] |  |  | 3.1 | 
Nc1cccc(-c2cc3c(Oc4cccc(O)c4)ncnc3[nH]2)c1 [TWS119] | did not decrease | Neither TbGSK3β inhibitor affected | 1.1 | Reduction of Tf endocytosis driven by TbGSK3β overexpression [8]: 300%; Effect on Hp-Hb endocytosis [9]: did not decrease
N#C/C(=C\c1ccc(O)c(O)c1)C(N)=S [tyrphostin-A47] |  |  |  | Effect on Tf endocytosis in the parasite [5]: blocks
